According to ChEMBL document CHEMBL1201862, “PubChem BioAssay data set” (2004):
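48-hour exposure; five concentrations; linearly interpolated endpoints. Abbreviation: GI50, concentration required for 50% inhibition of growth.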 Active and inactive are the calls of the source. No stated cut-off is given here; in the data, active = GI50 up to about 1.1 µM and inactive = higher.

Legend:
Test in all cases: inhibition of tumour cell growth, NCI panel, 48 h
DMS-114 = test system: DMS-114
DMS-273 = test system: DMS-273
HT-29 = test system: HT-29
KM-20L2 = test system: KM-20L2
MOLT-4 = test system: MOLT-4
Malme-3M = test system: Malme-3M
NCI-H23 = test system: NCI-H23
OVCAR-3 = test system: OVCAR-3
RPMI-8226 = test system: RPMI-8226
SF-295 = test system: SF-295
SNB-19 = test system: SNB-19
SNB-78 = test system: SNB-78
SW-620 = test system: SW-620
U-251 = test system: U-251
XF498 = test system: XF498

Measured: GI50

CNC(=O)OCc1nc(SC)n(C)c1CO
inactive: DMS-114 > 100 µM | DMS-273 > 100 µM | HT-29 > 100 µM | KM-20L2 > 100 µM | MOLT-4 > 100 µM | Malme-3M 1.68 µM | NCI-H23 > 100 µM | OVCAR-3 > 100 µM | RPMI-8226 > 100 µM | SF-295 > 100 µM | SNB-19 > 100 µM | SNB-78 > 100 µM | SW-620 > 100 µM | U-251 > 100 µM | XF498 > 100 µM
